Laboratory results reported in patent US5447925A, “Antibiotic compounds” (Imperial Chemical Industries PLC, priority 1991, dated 1995).
Converted amounts (≈) assume the structure as drawn.

Columns and labels:
Type in all cases: cell-based
[1] = tested on: P. aeruginosa PU21 (101028); test: MIC by agar dilution, P. aeruginosa PU21 (101028); details: Pseudomonas aeruginosa, Diagnostic Sensitivity Test agar, inoculum 10^4 CFU/spot
Excerpt: (§1) The pharmaceutically acceptable carbapenem compounds of the present invention are useful antibacterial agents having a broad spectrum of activity in vitro against standard laboratory microorganisms, both Gram-negative and Gram-positive, which are used to screen for activity against pathogenic bacteria. The antibacterial spectrum and potency of a particular compound may be determined in a standard test system. In particular the carbapenems of the present invention show good stability to beta-lactamases and have particularly high activity in vitro against strains of Pseudomonas aeruginosa and other Gram-negative aerobic bacteria.
(§2) The following results were obtained for representative compounds on a standard in vitro test system using Diagnostic Sensitivity Test agar medium. The antibacterial activity is described in terms of the minimum inhibitory concentration (M1C) determined by the agar-dilution technique with an inoculum size of 10^4 CFU/spot.

[2] = tested on: Ent. cloacae P99^- (401054); test: MIC by agar dilution, Ent. cloacae P99^- (401054); details: Enterobacter cloacae
Excerpt: as §1, §2

[3] = tested on: Serr. marcesens (421003); test: MIC by agar dilution, Serr. marcesens (421003); details: Diagnostic Sensitivity Test agar, inoculum 10^4 CFU/spot
Excerpt: as §1, §2

[4] = tested on: Pr. morganii (433001); test: MIC by agar dilution, Pr. morganii (433001); details: Morganella morganii, Diagnostic Sensitivity Test agar, inoculum 10^4 CFU/spot
Excerpt: as §1, §2

[5] = tested on: E. coli DCO (341098); test: MIC by agar dilution, E. coli DCO (341098); details: Escherichia coli, Diagnostic Sensitivity Test agar, inoculum 10^4 CFU/spot
Excerpt: as §1, §2

[6] = tested on: St. aureus 147N (601052); test: MIC by agar dilution, St. aureus 147N (601052); details: Staphylococcus aureus, Diagnostic Sensitivity Test agar, inoculum 10^4 CFU/spot
Excerpt: as §1, §2

[7] = tested on: S. dublin (369001); test: MIC by agar dilution, S. dublin (369001); details: Salmonella enterica, Diagnostic Sensitivity Test agar, inoculum 10^4 CFU/spot
Excerpt: as §1, §2

[8] = tested on: Strep. pyogenes (681018); test: MIC by agar dilution, Strep. pyogenes (681018); details: Streptococcus pyogenes, Diagnostic Sensitivity Test agar, inoculum 10^4 CFU/spot
Excerpt: as §1, §2

[9] = tested on: P. aeruginosa 18S (101024); test: MIC by agar dilution, P. aeruginosa 18S (101024); details: Pseudomonas aeruginosa, Diagnostic Sensitivity Test agar, inoculum 10^4 CFU/spot
Excerpt: as §1, §2

[10] = tested on: P. aeruginosa 18S IMIR (101148); test: MIC by agar dilution, P. aeruginosa 18S IMIR (101148); details: Pseudomonas aeruginosa
Excerpt: as §1, §2

[11] = tested on: B. fragilis AMP R (542008); test: MIC by agar dilution, B. fragilis AMP R (542008); details: Bacteroides fragilis, Diagnostic Sensitivity Test agar, inoculum 10^4 CFU/spot
Excerpt: as §1, §2

**Q.** What does the source list for `C[C@@H](O)[C@H]1C(=O)N2C(C(=O)O)=C(S[C@@H]3CN[C@H](CNC(=O)c4cc(O)c(O)c(C#N)c4)C3)[C@H](C)[C@H]12` [Example 3, (1R,5R,6S,8R,2'S,4'S)-2-(2-(5-cyano-3,4-dihydroxybenzoylaminomethyl)pyrrolidin-4-ylthio)-6-(1-hydroxyethyl)-1-methyulcarbapenem-3carboxylic acid]?
**A.** MIC [1]: 0.25 µg/mL (≈ 0.497 µM); MIC [2]: 0.03 µg/mL (≈ 0.0597 µM); MIC [3]: 0.25 µg/mL (≈ 0.497 µM); MIC [4]: 0.5 µg/mL (≈ 0.995 µM); MIC [5]: 0.03 µg/mL (≈ 0.0597 µM); MIC [6]: 0.125 µg/mL (≈ 0.249 µM); MIC [7]: 0.06 µg/mL (≈ 0.119 µM); MIC [8]: 0.008 µg/mL (≈ 0.0159 µM); MIC [9]: 0.125 µg/mL (≈ 0.249 µM); MIC [10]: 0.125 µg/mL (≈ 0.249 µM); MIC [11]: 4 µg/mL (≈ 7.96 µM)
